Drawing on US12473295B2, “Substituted straight chain spiro derivatives” (Janssen Pharmaceutica NV, priority 2019, dated 2025), this text covers IC50 for 14 compounds.

Assay [1] deals with menin/MLL (terbium chelate-labeled menin, FITC-MBM1 peptide) (Homo sapiens (Human), UniProt O00255). Kind of assay: Menin/MLL homogenous time-resolved fluorescence (HTRF) assay.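 Further: IC50 from percent inhibition of HTRF signal, normalized between wells without competitor and wells with a saturating competitor that displaces FITC-MBM1 from His-tagged menin.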 The format is binding. Background: Time-resolved FRET reads energy transfer from a long-lived donor to a nearby acceptor.
Sequence of menin/MLL (terbium chelate-labeled menin, FITC-MBM1 peptide) (O00255 other isoform, or with tags, fused parts or gaps): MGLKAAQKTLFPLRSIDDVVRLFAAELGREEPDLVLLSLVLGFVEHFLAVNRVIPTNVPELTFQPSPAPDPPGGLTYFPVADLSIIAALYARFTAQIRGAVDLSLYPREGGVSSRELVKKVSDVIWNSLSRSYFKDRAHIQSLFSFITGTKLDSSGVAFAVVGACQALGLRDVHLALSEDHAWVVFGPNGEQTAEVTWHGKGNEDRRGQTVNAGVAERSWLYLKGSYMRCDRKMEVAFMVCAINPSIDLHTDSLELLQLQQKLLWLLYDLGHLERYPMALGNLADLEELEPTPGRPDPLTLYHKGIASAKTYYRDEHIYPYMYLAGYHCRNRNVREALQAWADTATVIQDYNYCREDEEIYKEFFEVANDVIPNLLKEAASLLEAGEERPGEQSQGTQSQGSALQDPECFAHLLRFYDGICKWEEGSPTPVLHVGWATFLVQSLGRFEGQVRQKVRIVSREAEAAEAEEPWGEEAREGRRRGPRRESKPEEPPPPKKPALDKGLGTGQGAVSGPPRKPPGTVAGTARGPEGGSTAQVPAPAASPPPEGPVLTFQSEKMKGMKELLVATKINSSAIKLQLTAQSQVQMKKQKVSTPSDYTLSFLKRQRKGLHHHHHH
For assay [2], the system named is MOLM14 cells. As to the kind of experiment: Proliferation assay (spheroid growth, 8 days), MOLM14.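 Further: spheroid size read as confluence by live-cell imaging, compounds added at a range of concentrations with 0.3% DMSO, DMSO-treated wells = 0%, highest reference dose = low control.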 Particulars: MOLM14, 8 days, read-out: spheroid assay_OneTime MOLM14 IC50. The format is cell-based, human.
Assay [3] has as its system OCI-AML3 cells. Kind of assay: Proliferation assay (spheroid growth, 8 days), OCI-AML3. Format: cell-based, human. Particulars: OCI-AML3, 8 days. On the procedure:
(§1) The anti-proliferative effect of menin/MLL protein/protein interaction inhibitor test compounds was assessed in human leukemia cell lines. The cell line MOLM14 harbors a MLL translocation and expresses the MLL fusion protein MLL-AF9, respectively, as well as the wildtype protein from the second allele. OCI-AML3 cells that carry the NPM1c gene mutation were also tested. […] KO-52 was used as a control cell line containing two MLL (KMT2A) wildtype alleles in order to exclude compounds that display general cytotoxic effects.
(§2) KO-52 and OCI-AML3 cell lines were propagated in alpha-MEM (Sigma Aldrich) supplemented with 20% heat-inactivated fetal bovine serum (HyClone), 2 mM L-glutamine (Sigma Aldrich) and 50 μg/ml gentamycin (Gibco).
(§3) In order to assess the anti-proliferative effects, 200 MOLM14 cells, 200 OCI-AML3 cells or 300 KO-52 cells were seeded in 200 μl media per well in […] round bottom, ultra-low attachment plates (Costar, catalogue number 7007). Cell seeding numbers were chosen based on growth curves to ensure linear growth throughout the experiment. Test compounds were added at different concentrations and the DMSO content was normalized to 0.3%. Cells were incubated for 8 days at 37° C. and 5% CO2. Spheroid like growth was measured in real-time by live-cell imaging (IncuCyteZOOM, Essenbio, 4× objective) acquiring images at day 8. Confluence (%) as a measure of spheroid size was determined using an integrated analysis tool.
(§4) In order to determine the effect of the test compounds over time, the confluence in each well as a measure of spheroid size, was calculated. Confluence of the highest dose of a reference compound was used as baseline for the LC (Low control) and the confluence of DMSO treated cells was used as 0% cytotoxicity (High Control, HC).
(§5) GraphPad Prism(version 7.00) was used to calculate the IC50. Dose-response equation was used for the plot of % Effect vs Log 10 compound concentration with a variable slope and fixing the maximum to 100% and the minimum to 0%.

For assay [4], the system named is KO-52 cells. Kind of assay: Proliferation assay (spheroid growth, 8 days), KO-52 control cell line. Format: cell-based, human. As to conditions: read-out: spheroid assay_OneTime KO-52 IC50. On the procedure:
as §1, §2, §3, §4, §5

The test system of assay [5] is MEIS1 mRNA. As to the kind of experiment: MEIS1 mRNA expression assay (Quantigene Singleplex) in MOLM14 cells.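 Further: MEIS1 transcript levels read by probe hybridization and normalized to RPL28 mRNA, with IC50 fitted to fold changes across a rising compound concentration series.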 Format: cell-based, human. As to conditions: 48 hours incubation.
Where [6] appears, read: HTRF-30 min incubation IC50, 30 min incubation.

Where a name gives a salt, the structure may show the parent alone. Read-outs that look alike come from different tables or passages of the source.

For the compound `CCN(C(=O)c1cc(F)ccc1Oc1nncnc1N1CCC2(C1)CN([C@H](CCC(C)N(C)CCOC)C(C)C)C2)C(C)C` (stereo partly drawn) [Compound 300, N-ethyl-5-fluoro-N-isopropyl-2-((5-(2-((3R)-6-((2-methoxyethyl)(methyl)amino)-2-methylheptan-3-yl)-2,6-diazaspiro[3.4]octan-6-yl)-1,2,4-triazin-6-yl)oxy)benzamide fumarate], the IC50 in assay [1] (setting [6]) was 0.066 nM; in assay [2] (Homo sapiens, MOLM-14, […]) it was 36 nM; in assay [3] (Homo sapiens, OCI-AML-3, […]), 71 nM; in assay [4] (Homo sapiens, […]) it was greater than 15000 nM; in assay [5] (Homo sapiens, MOLM-14, 48 h), 29 nM.
As to `CCN(C(=O)c1cc(F)ccc1Oc1nncnc1N1CCC2(C1)CN([C@H](CCCN(C)C(C)CC(=O)N(C)C)C(C)C)C2)C(C)C` (some centres unmarked) [Compound 179, fumarate], the IC50 in assay [1] (setting [6]) was 0.13 nM; in assay [2] (Homo sapiens, MOLM-14, […]) it was 33 nM; in assay [3] (Homo sapiens, OCI-AML-3, […]), 59 nM; in assay [4] (Homo sapiens, […]), greater than 15000 nM; in assay [5] (Homo sapiens, MOLM-14, 48 h) it was 27 nM.
As to `CC(C)C(CCCN(C)C)N1CC2(CCN(c3ccnnc3Oc3ccc(F)cc3C(=O)N(C(C)C)C(C)C)C2)C1` (centres unmarked) [Compound 74, 2-((4-(2-(6-(dimethylamino)-2-methylhexan-3-yl)-2,6-diazaspiro[3.4]octan-6-yl)pyridazin-3-yl)oxy)-5-fluoro-N,N-diisopropylbenzamide], the 50% inhibitory concentration (IC50) in assay [1] (setting [6]) was determined as 0.51 nM; in assay [2] (Homo sapiens, MOLM-14, […]) it was 140 nM; in assay [3] (Homo sapiens, OCI-AML-3, […]), 1290 nM; in assay [4] (Homo sapiens, […]), 10600 nM; in assay [5] (Homo sapiens, MOLM-14, 48 h), 260 nM.
With `CCN(C(=O)c1cc(F)ccc1Oc1nnccc1N1CCC2(C1)CN([C@H](CCCN(C)C)C(C)C)C2)C(C)C` (single isomer, unassigned) [Compound 77, (*R)-2-((4-(2-(6-(dimethylamino)-2-methylhexan-3-yl)-2,6-diazaspiro[3.4]octan-6-yl)pyridazin-3-yl)oxy)-N-ethyl-5-fluoro-N-isopropylbenzamide], the IC50 in assay [1] (read-out: HTRF-30 min incubation IC50, 30 min incubation) came to 0.51 nM; in assay [2], 100 nM; in assay [3], 1320 nM; in assay [4] it was 13700 nM; in assay [5] it was 120 nM.
Consider `CCN(C(=O)c1cc(F)ccc1Oc1nncnc1N1CCC2(C1)CN([C@H](CCCN(C)CCOC)C(C)C)C2)C(C)C` [Compound 27, (R)-N-ethyl-5-fluoro-N-isopropyl-2-((5-(2-(6-((2-methoxyethyl)(methyl)amino)-2-methylhexan-3-yl)-2,6-diazaspiro[3.4]octan-6-yl)-1,2,4-triazin-6-yl)oxy)benzamide], for which the IC50 in assay [3] (Homo sapiens, OCI-AML-3, […]) turned out to be 91 nM; in assay [4] (Homo sapiens, […]), 6850 nM.
For the compound `CCN(C(=O)c1cc(F)ccc1Oc1nncnc1N1CCC2(C1)CN([C@@H](CCCN(C)CCOC)C(C)C)C2)C(C)C` [Compound 28, (S)—N-ethyl-5-fluoro-N-isopropyl-2-((5-(2-(6-((2-methoxyethyl)(methyl)amino)-2-methylhexan-3-yl)-2,6-diazaspiro[3.4]octan-6-yl)-1,2,4-triazin-6-yl)oxy)benzamide], the IC50 in assay [2] (Homo sapiens, MOLM-14, […]) is 600 nM; in assay [3] (Homo sapiens, OCI-AML-3, […]), 1360 nM; in assay [4] (Homo sapiens, […]), greater than 15000 nM.
On to `CCN(C(=O)c1cc(F)ccc1Oc1nncnc1N1CCC2(C1)CN([C@H](CCCN(CCOC)CCOC)C(C)C)C2)C(C)C` [Compound 90, (R)-2-((5-(2-(6-(bis(2-methoxyethyl)amino)-2-methylhexan-3-yl)-2,6-diazaspiro[3.4]octan-6-yl)-1,2,4-triazin-6-yl)oxy)-N-ethyl-5-fluoro-N-isopropylbenzamide formate], for which the IC50 came to 0.16 nM in assay [1] (setting [6]); 40 nM in assay [2] (Homo sapiens, MOLM-14, […]); 190 nM in assay [3] (Homo sapiens, OCI-AML-3, […]); 1000 nM in assay [4] (Homo sapiens, […]).
`CCN(C(=O)c1cc(F)ccc1Oc1nnccc1N1CCC2(C1)CN([C@@H](CCCN(C)CCOC)C(C)C)C2)C(C)C` (single isomer, unassigned) [Compound 84, (*S)—N-ethyl-5-fluoro-N-isopropyl-2-((4-(2-(6-((2-methoxyethyl)(methyl)amino)-2-methylhexan-3-yl)-2,6-diazaspiro[3.4]octan-6-yl)pyridazin-3-yl)oxy)benzamide oxalate]: the 50% inhibitory concentration (IC50) in assay [2] (Homo sapiens, MOLM-14, […]) was greater than 940 nM; in assay [3] (Homo sapiens, OCI-AML-3, […]), 7170 nM; in assay [4] (Homo sapiens, […]), greater than 15000 nM; in assay [5] (Homo sapiens, MOLM-14, 48 h) it was greater than 1000 nM.
As for `CCN(C(=O)c1cc(F)ccc1Oc1nncnc1N1CCC2(C1)CN([C@H](CCCN(C)CC(F)(F)F)C(C)C)C2)C(C)C` [Compound 21, (R)-N-ethyl-5-fluoro-N-isopropyl-2-((5-(2-(2-methyl-6-(methyl(2,2,2-trifluormethyl)amino)hexan-3-yl)-2,6-diazaspiro[3.4]octan-6-yl)-1,2,4-triazin-6-yl)oxy)benzamide], the IC50 in assay [1] (setting [6]) was 10.4 nM; in assay [2] (Homo sapiens, MOLM-14, […]) it was greater than 940 nM; in assay [4] (Homo sapiens, […]), greater than 15000 nM; in assay [5] (Homo sapiens, MOLM-14, 48 h), greater than 1000 nM.
For the compound `CCN(C(=O)c1cc(F)ccc1Oc1nncnc1N1CCC2(C1)CN([C@H](CCCN(C)CC(C)OC)C(C)C)C2)C(C)C` (single isomer, unassigned) [Compound 254, oxalate], the IC50 was 4.16 nM in assay [1] (setting [6]); 590 nM in assay [2] (Homo sapiens, MOLM-14, […]); 4690 nM in assay [3] (Homo sapiens, OCI-AML-3, […]); greater than 15000 nM in assay [4] (Homo sapiens, […]).
Regarding `CCN(C(=O)c1cc(F)ccc1Oc1nncnc1N1CCC2(C1)CN([C@@H](CCC(C)(C)NC)C(C)C)C2)C(C)C` (single isomer, unassigned) [Compound 36, (*S)-2-((5-(2-(2,6-dimethyl-6-(methylamino)heptan-3-yl)-2,6-diazaspiro[3.4]octan-6-yl)-1,2,4-triazin-6-yl)oxy)-N-ethyl-5-fluoro-N-isopropylbenzamide hydrochloride], the IC50 in assay [1] (setting [6]) was 2.6 nM; in assay [2] (Homo sapiens, MOLM-14, […]), greater than 940 nM; in assay [4] (Homo sapiens, […]), greater than 15000 nM; in assay [5] (Homo sapiens, MOLM-14, 48 h), greater than 1000 nM.
The like results for `CCN(C(=O)c1cc(F)ccc1Oc1nncnc1N1CCC2(C1)CN([C@@H](CN)C(C)C)C2)C(C)C` (single isomer, unassigned) [Compound 25, (*R)-2-((5-(2-(1-amino-3-methylbutan-2-yl)-2,6-diazaspiro[3.4]octan-6-yl)-1,2,4-triazin-6-yl)oxy)-N-ethyl-5-fluoro-N-isopropylbenzamide] were, in that order, 10.5 nM, greater than 3750 nM, greater than 15000 nM and roughly 1200 nM.
The like results for `CCN(C(=O)c1cc(F)ccc1Oc1nncnc1N1CCC2(C1)CN([C@H](CCCN(C)CC(F)F)C(C)C)C2)C(C)C` [Compound 16, (R)-2-((5-(2-(6-((2,2-difluoroethyl)(methyl)amino)-2-methylhexan-3-yl)-2,6-diazaspiro[3.4]octan-6-yl)-1,2,4-triazin-6-yl)oxy)-N-ethyl-5-fluoro-N-isopropylbenzamide] were, in that order, 1.85 nM, 370 nM, 10500 nM and roughly 670 nM.
For `CCN(C(=O)c1cc(F)ccc1Oc1nnc(Cl)nc1N1CCC2(C1)CN([C@H](CCCN(C)CCOC)C(C)C)C2)C(C)C` [Compound 394, (R)-2-((3-chloro-5-(2-(6-((2-methoxyethyl)(methyl)amino)-2-methylhexan-3-yl)-2,6-diazaspiro[3.4]octan-6-yl)-1,2,4-triazin-6-yl)oxy)-N-ethyl-5-fluoro-N-isopropylbenzamide fumarate], the half-maximal inhibitory concentration (IC50) in assay [2] (Homo sapiens, MOLM-14, […]) was 110 nM; in assay [3] (Homo sapiens, OCI-AML-3, […]), 330 nM; in assay [4] (Homo sapiens, […]), greater than 15000 nM.

Usually IC50 stands for the concentration needed to halve the response being measured.
